Test results reported in paper PMC12467033, “Exploring the Inhibitory Potential of Six Porphyrin Compounds Against α-Amylase and α-Glucosidase Linked to Diabetes” (Biomolecules, 2025).
Read-outs that look alike come from different tables or passages of the source.

Legend:
α-amylase = target: T1, α-amylase (Sus scrofa, UniProt P00690); test: α-Amylase inhibitory activity assay (Gal-G2-α-CNP substrate); format: biochemical; settings: 37 °C, pH 6.8
T1 sequence (P00690 16-511): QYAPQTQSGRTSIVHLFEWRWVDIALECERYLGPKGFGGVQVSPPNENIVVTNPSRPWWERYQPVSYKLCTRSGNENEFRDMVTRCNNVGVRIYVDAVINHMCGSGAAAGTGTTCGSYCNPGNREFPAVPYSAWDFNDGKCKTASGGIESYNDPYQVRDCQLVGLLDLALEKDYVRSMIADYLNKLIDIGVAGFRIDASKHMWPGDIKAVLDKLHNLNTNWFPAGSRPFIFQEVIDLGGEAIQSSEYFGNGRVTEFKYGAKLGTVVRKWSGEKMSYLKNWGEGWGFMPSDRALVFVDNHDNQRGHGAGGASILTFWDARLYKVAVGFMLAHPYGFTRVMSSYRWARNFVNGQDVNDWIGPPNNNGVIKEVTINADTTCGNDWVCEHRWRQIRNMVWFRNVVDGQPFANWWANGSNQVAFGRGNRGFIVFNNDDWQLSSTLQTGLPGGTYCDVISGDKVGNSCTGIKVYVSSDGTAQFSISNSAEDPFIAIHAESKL
Protocol: The inhibitory activity detection process was slightly modified, with reference as the base method from the literature. […] After thorough mixing, the samples were pre-incubated at 37 °C for 10 min. Subsequently, 100 μL of 5 mmol/L Gal-G2-α-CNP substrate was added to each sample. Following a 3 min reaction period, the absorbance of the solutions at 405 nm was measured using a microplate reader. The inhibition rate (%) was calculated based on the absorbance readings according to Formula (1).(1) inhibition rate%=(1−(A1−A2)/(A3−A4))×100
In the formula, A1 represents the sample group; A2 represents the sample control group (where the enzyme was replaced with phosphate buffer); A3 represents the blank control group; and A4 represents the reagent blank control group (containing blank sample solution and phosphate buffer).
Using the enzyme inhibition rate as the y-axis and the inhibitor concentration as the x-axis, the IC50 value was calculated through linear regression fitting with GraphPad Prism software (5.0).

MTT cytotoxicity assay = format: cell-based, human; settings: human, HepG2 cells; for viability at 24 h: read-out: cell viability
Protocol: The cytotoxicity of six porphyrin compounds against human hepatocellular carcinoma HepG2 cells was evaluated using the MTT assay. HepG2 cells were seeded into 96-well plates at a density of 5000 cells per well and cultured for 24 h at 37 °C in a 5% CO2 incubator. Then, 100 µL of sample solutions at various concentrations (50, 100, and 200 µg/mL) was added to the experimental wells, with blank control wells and solvent control wells also included. The cells were further incubated for 24 h. After incubation, 10 µL of MTT solution (5 mg/mL) was added to each well, and the plates were incubated for another 4 h. Subsequently, 100 µL of Formazan solubilization solution was added to each well, followed by gentle mixing. The plates were returned to the incubator and maintained until complete dissolution of Formazan crystals was observed under a microscope. The absorbance at 570 nm was measured using a microplate reader (Meigu Molecular Instrument Company, Shanghai, China), and the survival rate of HepG2 cells was calculated.(12) Cell viability=As-Ab/Ac-Ab×100%
In the formula, As represents the absorbance of the sample well, Ac denotes the absorbance of the blank control well (without the drug), and Ab refers to the absorbance of the solvent control well (devoid of both cells and the drug).

With `O=C(O)c1ccc(-c2c3nc(c(-c4ccc(C(=O)O)cc4)c4ccc([nH]4)c(-c4ccc(C(=O)O)cc4)c4nc(c(-c5ccc(C(=O)O)cc5)c5ccc2[nH]5)C=C4)C=C3)cc1.[Cu+2]` [Cu–TCPP, copper (II) meso-tetra (4-carboxyphenyl)porphyrin] the “IC50 α-amylase” value (α-amylase) was 245.04 ± 0.26 µg/mL.

With “iron (III) meso-tetra (4-carboxyphenyl) porphyrin chloride [Fe–TCPP]” the “IC50 α-amylase” value (α-amylase) was 95.75 ± 0.62 µg/mL.

For `Nc1ccc(-c2c3nc(c(-c4ccc(N)cc4)c4ccc([nH]4)c(-c4ccc(N)cc4)c4nc(c(-c5ccc(N)cc5)c5ccc2[nH]5)C=C4)C=C3)cc1` [TAPP], the viability at 24 h (MTT cytotoxicity assay; HepG2, 50–200 μg/mL) was greater than 97%.

With `O=C(O)c1ccc(-c2c3nc(c(-c4ccc(C(=O)O)cc4)c4ccc([nH]4)c(-c4ccc(C(=O)O)cc4)c4nc(c(-c5ccc(C(=O)O)cc5)c5ccc2[nH]5)C=C4)C=C3)cc1.[Ni+2]` [Ni–TCPP, nickel (II) meso-tetra (4-carboxyphenyl) porphine] the “IC50 α-amylase” value (α-amylase) was 156.26 ± 0.48 µg/mL.

`O=C(O)c1ccc(-c2c3nc(c(-c4ccc(C(=O)O)cc4)c4ccc([nH]4)c(-c4ccc(C(=O)O)cc4)c4nc(c(-c5ccc(C(=O)O)cc5)c5ccc2[nH]5)C=C4)C=C3)cc1` [TCPP] showed a viability at 24 h, 200 µg/mL (MTT cytotoxicity assay; HepG2, 200 μg/mL, read-out: cell viability (survival rate)) of 30.3 ± 3.45% and a viability at 24 h (MTT cytotoxicity assay; HepG2, 50–100 μg/mL) greater than 80%.
